This assay addresses Bl_Glc31 (Bifidobacterium longum, UniProt Q8G4P4). Kind of assay: LC-MS. In kind it is biochemical. The conditions noted are these: product Man9GlcNAc.

We go through one molecule from PMC10367113 (Nature chemical biology, 2022).

Structures are written as SMILES.

As for `CC(=O)N[C@H]1C(O)O[C@H](CO)[C@@H](O[C@@H]2O[C@H](CO[C@H]3O[C@H](CO[C@H]4O[C@H](CO)[C@@H](O)[C@H](O)[C@@H]4O[C@H]4O[C@H](CO)[C@@H](O)[C@H](O)[C@@H]4O)[C@@H](O)[C@H](O[C@H]4O[C@H](CO)[C@@H](O)[C@H](O)[C@@H]4O[C@H]4O[C@H](CO)[C@@H](O)[C@H](O)[C@@H]4O)[C@@H]3O)[C@@H](O)[C@H](O[C@H]3O[C@H](CO)[C@@H](O)[C@H](O)[C@@H]3O[C@H]3O[C@H](CO)[C@@H](O)[C@H](O)[C@@H]3O[C@H]3O[C@H](CO)[C@@H](O)[C@H](O[C@H]4O[C@H](CO)[C@@H](O)[C@H](O)[C@H]4O)[C@@H]3O)[C@@H]2O)[C@@H]1O` (stereo partly shown) [GlcMan9GlcNAc], the LC-MS result was “Bl_Glc31 can specifically cleave GlcMan9GlcNAc, generating only Man9GlcNAc”.
